Results on 13 compounds are retold here after ChEMBL document CHEMBL5154930, “Design, Synthesis, and Biological Evaluations of DOT1L Peptide Mimetics Targeting the Protein-Protein Interactions between DOT1L and MLL-AF9/MLL-ENL” (J Med Chem, 2022).

Non-standard residues stand in square brackets, D forms with d. Residues, ends and D or L forms follow the SMILES beside them. *: point of attachment. X6 = c1ccc(C[C@H](N*)c2nc3cccc(-c4ccccc4)c3[nH]2)cc1; X7 = CC[C@H](C)[C@H](N*)c1nc2cccc(-c3ccccc3)c2[nH]1; X3 = CC(C)C[C@H](N*)c1nc2cccc(-c3ccccc3)c2[nH]1; X5 = c1ccc(-c2cccc3nc([C@@H]4CCCN4*)[nH]c23)cc1; X4 = CC(C)[C@H](N*)c1nc2cccc(-c3ccccc3)c2[nH]1; X1 = C[C@H](N*)c1nc2cccc(-c3ccccc3)c2[nH]1; Ala(cPent) = N[C@@H](CC1CCCC1)C(=O)O; Pentanoyl(4-Me) = CC(C)CCC(=O)*; Dap(Me) = CNC[C@H](N)C(=O)O; Dap = NC[C@H](N)C(=O)O; Bz = O=C(c1ccccc1)*

In series [1] the target is T1, Protein AF-9 (Homo sapiens, UniProt P42568).
T1 sequence (P42568 whole entry): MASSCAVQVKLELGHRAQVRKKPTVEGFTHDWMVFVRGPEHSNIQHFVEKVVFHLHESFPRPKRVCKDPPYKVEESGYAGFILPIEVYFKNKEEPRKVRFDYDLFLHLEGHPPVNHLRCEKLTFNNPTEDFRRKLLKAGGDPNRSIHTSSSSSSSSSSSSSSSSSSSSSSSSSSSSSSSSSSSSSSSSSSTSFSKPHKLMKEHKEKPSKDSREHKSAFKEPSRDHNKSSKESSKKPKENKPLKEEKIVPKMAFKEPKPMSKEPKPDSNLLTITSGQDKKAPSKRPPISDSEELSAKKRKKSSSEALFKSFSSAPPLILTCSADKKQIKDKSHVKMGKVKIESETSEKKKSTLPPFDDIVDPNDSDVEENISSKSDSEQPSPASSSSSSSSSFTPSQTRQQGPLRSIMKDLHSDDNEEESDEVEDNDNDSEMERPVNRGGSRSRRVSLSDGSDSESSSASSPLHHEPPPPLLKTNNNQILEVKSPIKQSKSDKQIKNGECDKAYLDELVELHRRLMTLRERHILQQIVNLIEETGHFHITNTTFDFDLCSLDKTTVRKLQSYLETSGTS
Briefly: Binding affinity to MBP-tagged human recombinant AF9 (487 to 568 residues) incubated for 40 mins by measuring fluorescence polarization by microplate reader method. Background: Polarisation of emitted light reports the rotation of a fluorescent probe.

In series [2] the test system is MOLM-13. Briefly: cells. The settings on record: Homo sapiens, MOLM-13, 192 h.
Description: Anticancer activity against human MOLM-13 cells harbouring MLL-AF9 assessed as inhibition of cell growth treated for 8 days measured by CCK-8 kit method
Series [3] has as its system KOPN-8. Briefly: cells. The settings on record: Homo sapiens, KOPN-8, 192 h.
Description: Anticancer activity against human KOPN-8 cells harbouring MLL-ENL assessed as inhibition of cell growth treated for 8 days measured by CCK-8 kit method
Series [4] can be described thus: Apparent permeability across apical to basolateral side in human Caco-2 cells. Format: ADME, cell-based. Background: Passage across Caco-2 layers is used to estimate intestinal permeability.
Series [5] can be described thus: Stability in human plasma assessed as compound remaining measured upto 1440 mins by HPLC analysis. The settings on record: read-out: Stability. Format: ADME, cell-free.
Series [6] relates to MOLM-13. Briefly: cells. The settings on record: Homo sapiens, MOLM-13, 216 h.
Description: Anticancer activity against human MOLM-13 cells harbouring MLL-AF9 assessed as inhibition of cell growth treated for 9 days measured by CCK-8 kit method
For series [7], the system named is MV4-11. Briefly: Anticancer activity against human MV4-11 cells assessed as inhibition of cell growth treated for 8 days measured by CCK-8 kit method. The series is classed as functional, cell-based. The settings on record: MV4-11, 192 h.
In series [8] the test system is MOLM-13. Briefly: cells. The settings on record: Homo sapiens, MOLM-13, 168 h.
Description: Anticancer activity against human MOLM-13 cells harbouring MLL-AF9 assessed as inhibition of cell growth treated for 7 days measured by CCK-8 kit method
Series [9] relates to MOLM-13. Briefly: cells. The settings on record: Homo sapiens, MOLM-13, 96 h.
Description: Anticancer activity against human MOLM-13 cells harbouring MLL-AF9 assessed as inhibition of cell growth treated for 4 days measured by CCK-8 kit method
Series [10] relates to K562. Briefly: Anticancer activity against human K562 cells assessed as inhibition of cell growth treated for 8 days measured by CCK-8 kit method. Format: functional, cell-based. The settings on record: K562, 192 h. (Tetrazolium assays rely on reduction of a dye to a coloured formazan, in cell work by metabolically active cells.)
For series [11], the system named is RS4-11. Briefly: Anticancer activity against human RS4-11 cells assessed as inhibition of cell growth treated for 8 days measured by CCK-8 kit method. Format: functional, cell-based. The settings on record: RS4-11, 192 h.
For series [12], the system named is MOLM-13. Briefly: cells. The settings on record: Homo sapiens, MOLM-13, 120 h.
Description: Anticancer activity against human MOLM-13 cells harbouring MLL-AF9 assessed as inhibition of cell growth treated for 5 days measured by CCK-8 kit method
Series [13] has as its system MOLM-13. Briefly: cells. The settings on record: Homo sapiens, MOLM-13, 144 h.
Description: Anticancer activity against human MOLM-13 cells harbouring MLL-AF9 assessed as inhibition of cell growth treated for 6 days measured by CCK-8 kit method

One may read the Ki as the equilibrium dissociation constant of an inhibitor or competing ligand from its target. Broadly, the IC50 is the concentration that gives 50% inhibition. As for `CC(=O)N[C@@H](CC(C)C)C(=O)N1CCC[C@H]1C(=O)N[C@H](C(=O)N[C@@H](CN)C(=O)N[C@@H](CC1CCCC1)C(=O)N1CCC[C@H]1c1nc2cccc(-c3ccccc3)c2[nH]1)C(C)C` (Ac-LPV[Dap][Ala(cPent)]-X5), the Ki in series [1] turned out to be 22 nM. Besides, the figures for the IC50 in [2] and in [3] were 500 nM and 680 nM, respectively.

For `CC(=O)N[C@@H](CC(C)C)C(=O)N1CCC[C@H]1C(=O)N[C@H](C(=O)N[C@@H](CN)C(=O)N[C@@H](CC1CCCC1)C(=O)N[C@@H](C)c1nc2cccc(-c3ccccc3)c2[nH]1)C(C)C` (Ac-LPV[Dap][Ala(cPent)]-X1), the Ki in series [1] was 17 nM. Moreover, the IC50 in series [2] came out at 460 nM; in series [3], 440 nM.

By Papp A→B is commonly meant how fast a substance crosses the layer from the apical side. Consider `CC(C)(C)NCC(O)COc1cccc2c1CC(O)C(O)C2` (stereo not drawn) [NADOLOL], for which the apical-to-basolateral permeability (Papp A→B) in series [4] came to 0.13 ×10⁻⁶ cm/s. In addition, in [5], the remaining at 24 h was found to be 97.1%.

Consider `CC(C)NCC(O)COc1cccc2ccccc12` (stereo not drawn) [PROPRANOLOL], for which the Papp A→B in series [4] is 18.5 ×10⁻⁶ cm/s. Moreover, in [5], the remaining at 24 h was determined as 72.9%.

As for `CC(=O)N[C@@H](CC(C)C)C(=O)N1CCC[C@H]1C(=O)N[C@H](C(=O)N[C@@H](CN)C(=O)N[C@@H](CC1CCCC1)C(=O)N[C@@H](CC(C)C)c1nc2cccc(-c3ccccc3)c2[nH]1)C(C)C` (Ac-LPV[Dap][Ala(cPent)]-X3), the Ki in series [1] is 19 nM. For the same compound, the IC50 in series [2] worked out at 490 nM; in series [3] it was 430 nM.

For the compound `CC[C@H](C)[C@H](NC(=O)[C@H](CO)NC(=O)[C@@H](NC(=O)[C@@H]1CCCN1C(=O)[C@H](CC(C)C)NC(C)=O)C(C)C)C(=O)N1CCC[C@H]1C(=O)N[C@@H](CC(C)C)C(=O)N(C)C` (HELM PEPTIDE1{[ac].L.P.V.S.I.P.L.[CN(C)[*:1]]}$$$$V2.0), in series [1], the Ki was 160 nM.

Regarding `CC(=O)N[C@@H](CC(C)C)C(=O)N1CCC[C@H]1C(=O)N[C@H](C(=O)N[C@@H](CN)C(=O)N[C@@H](CC1CCCC1)C(=O)N[C@@H](Cc1ccccc1)c1nc2cccc(-c3ccccc3)c2[nH]1)C(C)C` (Ac-LPV[Dap][Ala(cPent)]-X6), the Ki in [1] worked out at 13 nM. In addition, the IC50 in [2] came out at 440 nM; in [3], 410 nM.

With `CNC[C@H](NC(=O)[C@@H](NC(=O)[C@@H]1CCCN1C(=O)c1ccccc1)C(C)C)C(=O)N[C@@H](CC1CCCC1)C(=O)N[C@@H](C)c1nc2cccc(-c3ccccc3)c2[nH]1` (Bz-PV[Dap(Me)][Ala(cPent)]-X1), the Ki in series [1] came out at 32 nM. The results for the IC50 in series [2] and in [3] were 740 nM and 670 nM, respectively.

Consider `CC(C)[C@H](NC(=O)[C@@H]1CCCN1C(=O)c1ccccc1)C(=O)N[C@@H](CN)C(=O)N[C@@H](CC1CCCC1)C(=O)N[C@@H](C)c1nc2cccc(-c3ccccc3)c2[nH]1` (Bz-PV[Dap][Ala(cPent)]-X1), for which the Ki in series [1] stood at 15 nM. For the same compound, the IC50 in series [2] is 310 nM; in series [3] it was 330 nM.

For `CC(=O)N[C@@H](CC(C)C)C(=O)N1CCC[C@H]1C(=O)N[C@H](C(=O)N[C@@H](CN)C(=O)N[C@@H](CC1CCCC1)C(=O)N[C@H](c1nc2cccc(-c3ccccc3)c2[nH]1)C(C)C)C(C)C` (Ac-LPV[Dap][Ala(cPent)]-X4), the inhibition constant (Ki) in [1] was found to be 29 nM. Also, the values for the IC50 in series [2] and in series [3] were 640 nM and 750 nM, respectively.

On to `CC(C)CCC(=O)N1CCC[C@H]1C(=O)N[C@H](C(=O)N[C@@H](CN)C(=O)N[C@@H](CC1CCCC1)C(=O)N[C@@H](C)c1nc2cccc(-c3ccccc3)c2[nH]1)C(C)C` ({Pentanoyl(4-Me)}-PV[Dap][Ala(cPent)]-X1), for which the IC50 in [6] was determined as 94 nM; in series [7], 140 nM; in series [8] it was 257 nM; in series [9] it was 1290 nM; in series [10] it was 33000 nM; in [11], 380 nM. Also, the IC50 was found to be 932 nM in [12], 589 nM in series [13], 150 nM in series [2] and 190 nM in series [3]. Besides, the Papp A→B in series [4] stood at 1.82 ×10⁻⁶ cm/s. The Ki in series [1] is 9 nM. The remaining at 24 h in series [5] is 83%.

With `CC[C@H](C)[C@H](NC(=O)[C@H](CC1CCCC1)NC(=O)[C@H](CN)NC(=O)[C@@H](NC(=O)[C@@H]1CCCN1C(=O)[C@H](CC(C)C)NC(C)=O)C(C)C)c1nc2cccc(-c3ccccc3)c2[nH]1` (Ac-LPV[Dap][Ala(cPent)]-X7), the Ki in series [1] was 23 nM. Moreover, the values for the IC50 in series [2] and in series [3] were 610 nM and 480 nM, respectively.

As for `CC[C@@H](C)[C@H](NC(=O)[C@@H]1CCCN1C(=O)[C@H](CC(C)C)NC(C)=O)C(=O)N[C@@H](CO)C(=O)N[C@H](C(=O)N1CCC[C@H]1C(=O)N[C@@H](CC(C)C)C(=O)N(C)C)[C@@H](C)CC`, the Ki in [1] worked out at 160 nM.
